Like-named read-outs stand apart in the source and are kept apart here.
Biological target: SOS1 (Homo sapiens (Human), UniProt Q07889)
Test: Ras-SOS interaction assay (HTRF)
Format: biochemical
Excerpt: The ability of any compound of the present disclosure to reduce a Ras protein signaling output by, e.g., interfering or disrupting interaction (or binding) between SOS1 and a Ras protein can be assessed in vitro. For example, the equilibrium interaction of human SOS1 (hSOS1) with human wildtype Kras or K-Ras mutant (e.g., hK-Ras G12C mutant, or hK-RasG12C) can be assessed as a proxy or an indication for a subject compound's ability to inhibit SOS. Detection of such interaction is achieved by measuring homogenous time-resolved fluorescence resonance energy transfer (HTRF) from (i) a fluorescence resonance energy transfer (FRET) donor (e.g., antiGST-Europium) that is bound to GST-tagged K-RasG12C to (ii) a FRET acceptor (e.g., anti-6His-XL665) bound to a His-tagged hSOS1.
The assay buffer can contain 5 mM HEPES pH 7.4, 150 mM NaCl, 10 mM EDTA, 1 mM DTT, 0.05% BSA, 0.0025% (v/v) Igepal and 100 mM KF. A Ras working solution is prepared in assay buffer containing typically 10 nM of the protein construct (e.g., GST-tagged hK-RasG12C) and 2 nM of the FRET donor (e.g., antiGST-Eu(K) from Cisbio, France). A SOS1 working solution is prepared in assay buffer containing typically 10 nM of the protein construct (e.g., His-hSOS1) and 10 nM of the FRET acceptor (e.g., anti-6His-XL665 from Cisbio, France). An inhibitor control solution is prepared in assay buffer containing 10 nM of the FRET acceptor without the SOS1 protein.
A fixed reaction mixture with or without test compound is transferred into a 384-well plate. Ras working solution is added to all wells of the test plate. SOS1 working solution is added to all wells except for those that are subsequently filled the inhibitor control solution. After approximately 60 min incubation, the fluorescence is measured with a M1000Pro plate reader (Tecan) using HTRF detection (excitation 337 nm, emission 1: 620 nm, emission 2: 665 nm). Compounds are tested in duplicates at different concentrations (for example, 10 μM, 2.5 μM, 0.63 μM, 0.16 μM, 0.04 μM, 0.01 μM test compound). The ratiometric data (i.e., emission 2 divided by emission 1) is used to calculate IC50 values against SOS1 using GraphPad Prism (GraphPad software).

[1] = K-RasG13D utilized, read-out: IC50 inhibition of SOS
[2] = K-RasG13D, read-out: IC50 value against SOS1

Chain of SOS1 (Q07889 564-1049): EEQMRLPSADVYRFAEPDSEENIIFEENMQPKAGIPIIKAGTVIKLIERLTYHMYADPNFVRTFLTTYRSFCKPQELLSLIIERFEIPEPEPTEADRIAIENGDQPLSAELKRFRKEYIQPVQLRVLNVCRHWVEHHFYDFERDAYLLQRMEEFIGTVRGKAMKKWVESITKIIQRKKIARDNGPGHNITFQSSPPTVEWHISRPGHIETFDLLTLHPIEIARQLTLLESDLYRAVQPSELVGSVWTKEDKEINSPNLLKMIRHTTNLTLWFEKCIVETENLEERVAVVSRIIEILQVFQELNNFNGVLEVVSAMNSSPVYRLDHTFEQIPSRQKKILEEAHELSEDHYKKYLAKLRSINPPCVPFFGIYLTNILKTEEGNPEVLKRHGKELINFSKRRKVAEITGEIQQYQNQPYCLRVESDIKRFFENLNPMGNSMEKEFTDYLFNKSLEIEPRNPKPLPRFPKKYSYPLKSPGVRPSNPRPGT

SMILES | IC50 [1] | IC50 [2]
COc1nc2nc(C)nc(N[C@H](C)c3cccc(C(F)F)c3F)c2cc1S(=O)(=O)N1CCN(C)CC1 [Compound 106, (R)—N-(1-(3-(difluoromethyl)-2-fluorophenyl)ethyl)-7-methoxy-2-methyl-6-((4-methylpiperazin-1-yl)sulfonyl)pyrido[2,3-d]pyrimidin-4-amine] | < 100 nM | 
Cc1nc(N[C@H](C)c2cccc(C(F)(F)F)c2F)c2cc(N3CCN(C(C)C)CC3)nnc2n1 [Compound 107, (R)—N-(1-(2-fluoro-3-(trifluoromethyl)phenyl)ethyl)-3-(4-isopropylpiperazin-1-yl)-7-methylpyrimido[4,5-c]pyridazin-5-amine] | < 100 nM | 
Cc1nc(N[C@H](C)c2cccc(C(F)F)c2F)c2cc(N3CCN(C(C)C)CC3)nnc2n1 [Compound 108, (R)—N-(1-(3-(difluoromethyl)-2-fluorophenyl)ethyl)-3-(4-isopropylpiperazin-1-yl)-7-methylpyrimido[4,5-c]pyridazin-5-amine] | < 100 nM | 
COc1nc2nc(C)nc(N[C@H](C)c3cccc(C)c3F)c2cc1[C@H]1C[C@@H](N)C1 [Compound 111, 6-((1s,3S)-3-aminocyclobutyl)-N-((R)-1-(2-fluoro-3-methylphenyl)ethyl)-7-methoxy-2-methylpyrido[2,3-d]pyrimidin-4-amine] | 100 to 1000 nM | 
COc1nc2nc(C)nc(N[C@H](C)c3cccc(C(F)F)c3F)c2cc1C1CCNCC1 [Compound 121, (R)—N-(1-(3-(difluoromethyl)-2-fluorophenyl)ethyl)-7-methoxy-2-methyl-6-(piperidin-4-yl)pyrido[2,3-d]pyrimidin-4-amine] | < 100 nM | < 50 nM
COc1nc2nc(C)nc(N[C@H](C)c3cccc(C(F)F)c3F)c2cc1C1CCN(C(=O)NC2CNC2)CC1 [Compound 122, (R)-N-(azetidin-3-yl)-4-(4-((1-(3-(difluoromethyl)-2-fluorophenyl)ethyl)amino)-7-methoxy-2-methylpyrido[2,3-d]pyrimidin-6-yl)piperidine-1-carboxamide] | < 100 nM | < 50 nM
COc1nc2nc(C)nc(N[C@H](C)c3cccc(C(F)F)c3F)c2cc1C1CCN(C(=O)NC2CN(C)C2)CC1 [Compound 124, (R)-4-(4-((1-(3-(difluoromethyl)-2-fluorophenyl)ethyl)amino)-7-methoxy-2-methylpyrido[2,3-d]pyrimidin-6-yl)-N-(1-methylazetidin-3-yl)piperidine-1-carboxamide] | < 100 nM | < 50 nM
COc1nc2nc(C)nc(N[C@H](C)c3cccc(C(F)F)c3F)c2cc1C1(C#N)CCN(Cc2ccccc2)CC1 [Compound 140, (R)-1-benzyl-4-(4-((1-(3-(difluoromethyl)-2-fluorophenyl)ethyl)amino)-7-methoxy-2-methylpyrido[2,3-d]pyrimidin-6-yl)piperidine-4-carbonitrile] | 100 to 1000 nM | 
Cc1nc(N[C@H](C)c2cccc(C(F)F)c2F)c2cc(S(=O)(=O)C3CCN(C)CC3)c(C)nc2n1 [Compound 141, (R)-N-(1-(3-(difluoromethyl)-2-fluorophenyl)ethyl)-2,7-dimethyl-6-((1-methylpiperidin-4-yl)sulfonyl)pyrido[2,3-d]pyrimidin-4-amine] | < 100 nM | 
COc1nc2nc(C)nc(N[C@H](C)c3cc(F)cc(C(F)F)c3F)c2cc1C1CCS(=O)(=O)CC1 [Compound 144, (R)-4-(4-((1-(3-(difluoromethyl)-2,5-difluorophenyl)ethyl)amino)-7-methoxy-2-methylpyrido[2,3-d]pyrimidin-6-yl)tetrahydro-2H-thiopyran 1,1-dioxide] | 100 to 1000 nM | 
COc1nc2nc(N3CCC3)nc(N[C@H](C)c3cccc(C(F)F)c3F)c2cc1N1CCN(C(C)C)CC1 [Compound 168, (R)-2-(azetidin-1-yl)-N-(1-(3-(difluoromethyl)-2-fluorophenyl)ethyl)-6-(4-isopropylpiperazin-1-yl)-7-methoxypyrido[2,3-d]pyrimidin-4-amine] | 100 to 1000 nM | 
Cc1nc(N[C@H](C)c2cccc(C(F)F)c2F)c2cc(C3(C(F)F)CC3)c(OC3COC3)nc2n1 [Compound 186, (R)—N-(1-(3-(difluoromethyl)-2-fluorophenyl)ethyl)-6-(1-(difluoromethyl)cyclopropyl)-2-methyl-7-(oxetan-3-yloxy)pyrido[2,3-d]pyrimidin-4-amine] | < 100 nM | 
Cc1nc(N[C@H](C)c2cccc(C(F)(F)F)c2C)c2cc(N3CCN(C(C)C)CC3)c(Cl)nc2n1 [Compound 201, (R)-7-chloro-6-(4-isopropylpiperazin-1-yl)-2-methyl-N-(1-(2-methyl-3-(trifluoromethyl)phenyl)ethyl)pyrido[2,3-d]pyrimidin-4-amine] | < 100 nM | < 50 nM
COc1nc2nc(C)nc(N[C@H](C)c3cccc(C(F)(F)CCC4CN(C(=O)OC(C)(C)C)C4)c3F)c2cc1C1(C#N)CC1 [Compound 208, tert-butyl (R)-3-(3-(3-(1-((6-(1-cyanocyclopropyl)-7-methoxy-2-methylpyrido[2,3-d]pyrimidin-4-yl)amino)ethyl)-2-fluorophenyl)-3,3-difluoropropyl)azetidine-1-carboxylate] | 100 to 1000 nM | 

Further lines, results first:

IC50 [1] | IC50 [2] | SMILES
100 to 1000 nM |  | Cc1nc(N[C@H](C)c2cccc(C(F)F)c2F)c2cc(C3(C#N)CC3)c(NC3COC3)nc2n1 [Compound 225, (R)-1-(4-((1-(3-(difluoromethyl)-2-fluorophenyl)ethyl)amino)-2-methyl-7-(oxetan-3-ylamino)pyrido[2,3-d]pyrimidin-6-yl)cyclopropane-1-carbonitrile]
100 to 1000 nM |  | Cc1nc(N[C@H](C)c2cccc(C(F)F)c2F)c2cc(C3(C#N)CC3)c(NC3CCOCC3)nc2n1 [Compound 228, (R)-1-(4-((1-(3-(difluoromethyl)-2-fluorophenyl)ethyl)amino)-2-methyl-7-((tetrahydro-2H-pyran-4-yl)amino)pyrido[2,3-d]pyrimidin-6-yl)cyclopropane-1-carbonitrile]
100 to 1000 nM |  | C[C@@H](Nc1ncnc2nc(O[C@H]3CCOC3)c(C3(C#N)CC3)cc12)c1cccc(C(F)F)c1F [Compound 230, 1-(4-(((R)-1-(3-(difluoromethyl)-2-fluorophenyl)ethyl)amino)-7-(((S)-tetrahydrofuran-3-yl)oxy)pyrido[2,3-d]pyrimidin-6-yl)cyclopropane-1-carbonitrile]
100 to 1000 nM |  | COc1nc2nc(N3CC(N(C)C)C3)nc(N[C@H](C)c3cccc(C(F)F)c3F)c2cc1C1(C#N)CC1 [Compound 237, (R)-1-(4-((1-(3-(difluoromethyl)-2-fluorophenyl)ethyl)amino)-2-(3-(dimethylamino)azetidin-1-yl)-7-methoxypyrido[2,3-d]pyrimidin-6-yl)cyclopropane-1-carbonitrile]
< 100 nM |  | COc1nc2nc(C)nc(N[C@H](C)c3cccc(C(F)(F)C(C)(C)OC4CN(C(=O)OC(C)(C)C)C4)c3F)c2cc1N1CCN(C(C)C)CC1 [Compound 241, tert-butyl (R)-3-((1,1-difluoro-1-(2-fluoro-3-(1-((6-(4-isopropylpiperazin-1-yl)-7-methoxy-2-methylpyrido[2,3-d]pyrimidin-4-yl)amino)ethyl)phenyl)-2-methylpropan-2-yl)oxy)azetidine-1-carboxylate]
< 100 nM | < 50 nM | Cc1nc(N[C@H](C)c2cccc(C(F)F)c2F)c2cc(C3CCN(C)CC3)c(OC3COC3)nc2n1 [Compound 246, (R)-N-(1-(3-(difluoromethyl)-2-fluorophenyl)ethyl)-2-methyl-6-(1-methylpiperidin-4-yl)-7-(oxetan-3-yloxy)pyrido[2,3-d]pyrimidin-4-amine]
100 to 1000 nM |  | Cc1nc(N[C@H](C)c2cccc3c2OC(C)(C)C3(F)F)c2cc(N3CCN(C(C)C)CC3)c(OCC3COC3)nc2n1 [Compound 274, (R)—N-(1-(3,3-difluoro-2,2-dimethyl-2,3-dihydrobenzofuran-7-yl)ethyl)-6-(4-isopropylpiperazin-1-yl)-2-methyl-7-(oxetan-3-ylmethoxy)pyrido[2,3-d]pyrimidin-4-amine]
100 to 1000 nM |  | COc1nc2nc(OCC3CCOCC3)nc(N[C@H](C)c3cccc(C(F)F)c3F)c2cc1C1(C#N)CC1 [Compound 275, (R)-1-(4-((1-(3-(difluoromethyl)-2-fluorophenyl)ethyl)amino)-7-methoxy-2-((tetrahydro-2H-pyran-4-yl)methoxy)pyrido[2,3-d]pyrimidin-6-yl)cyclopropane-1-carbonitrile]

Reference: patent US11648254B2 (Kumquat Biosciences Inc., priority 2021, dated 2023)
